Experimental data taken from patent US20030157200A1, “Use of oligosaccharides to stimulate beta-endorphin production” (priority 2000, published 2003).

Test system: normal human keratinocytes
Test: Synthesis/secretion of β-endorphin by normal human keratinocytes, assayed by EIA
Assay type: cell-based
Details: 24 h; for effect on the production of β-endorphin by normal human keratinocytes (in words): normal human keratinocytes in culture
Protocol: Norman human keratinocytes are cultivated to the point of confluence on a 24-well plate and then incubated in a culture medium for 24 hours in the presence of dibutiryl CAMP (2 mM), interleukin-1β (IL-1β) (500 pg/ml) and the test product, i.e. in this case either Tephrosia purpurea extracts according to Example 1, or stachyose, or ciceritol, at the doses indicated in Tables I, II and III respectively.
Each Tephrosia extract obtained by the process of Example 1 is provided accurately weighed and redissolved at a concentration of 50 mg/ml in an ethanol/water mixture (1/1).
Antiproteases—aprotinin 5 μg/ml, leupeptin 1 μg/ml and PMSF 1 mM —are added to each well in order to limit the action of the proteases.
Each experimental point is duplicated.
After incubation for 24 h, the culture supernatants are recovered and frozen at −80° C.
Positive stimulation controls are carried out in parallel, the cells being treated for 24 h, as above, with either IL-1β 500 pg/ml or dibutyryl CAMP 2 mM.
The β-endorphin secreted is assayed by EIA (kit from Peninsula Laboratoiries) and expressed in pg/ml.
The procedure followed is the same as in the experiments with Tephrosia purpurea extracts except that stachyose and ciceritol are used at the doses indicated in Table II, and the results obtained are indicated in Table II below.

CCCC(=O)Nc1ncnc2c1ncn2[C@@H]1O[C@@H]2COP(=O)(O)O[C@H]2[C@H]1OC(=O)CCC [dibutyryl cAMP]
β-endorphin secreted (2 mM, positive control, Table I batch B1 block, Control 3 ± 4): 87 ± 12 pg/mL
β-endorphin secreted (2 mM, positive control, Table I batch B2 experiment, Control 3 ± 4): 87 ± 12 pg/mL
β-endorphin secreted (2 mM, positive control, Table I batch B3 first series, Control 1 ± 1): 10 ± 1 pg/mL
β-endorphin secreted (2 mM, positive control, Table I batch B3 second series, Control 1 ± 3): 22 ± 1 pg/mL
β-endorphin secreted (2 mM, positive control, Table II ciceritol first series, Control 1 ± 2): 10 ± 1 pg/mL
β-endorphin secreted (2 mM, positive control, Table II ciceritol second series, Control 3 ± 3): 87 ± 8 pg/mL
β-endorphin secreted (2 mM, positive control, Table II stachyose experiment, Control 10 ± 3): 22 ± 1 pg/mL
effect on the production of β-endorphin by normal human keratinocytes (in words): stimulated the production of β-endorphin

IL-1β: interleukin-1β, positive stimulation control
β-endorphin secreted (500 pg/ml, positive control, Table I batch B1 block, Control 3 ± 4): 35 ± 5 pg/mL
β-endorphin secreted (500 pg/ml, positive control, Table I batch B2 experiment, Control 3 ± 4): 35 ± 5 pg/mL
β-endorphin secreted (500 pg/ml, positive control, Table I batch B3 first series, Control 1 ± 1): 17 ± 3 pg/mL
β-endorphin secreted (500 pg/ml, positive control, Table I batch B3 second series, Control 1 ± 3): 25 ± 4 pg/mL
β-endorphin secreted (500 pg/ml, positive control, Table II ciceritol first series, Control 1 ± 2): 17 ± 3 pg/mL
β-endorphin secreted (500 pg/ml, positive control, Table II ciceritol second series, Control 3 ± 3): 35 ± 3 pg/mL
β-endorphin secreted (500 pg/ml, positive control, Table II stachyose experiment, Control 10 ± 3): 25 ± 4 pg/mL
effect on the production of β-endorphin by normal human keratinocytes (in words): stimulated the production of β-endorphin

CO[C@H]1[C@H](O)[C@@H](O[C@H]2O[C@H](CO[C@H]3O[C@H](CO)[C@H](O)[C@H](O)[C@H]3O)[C@H](O)[C@H](O)[C@H]2O)[C@@H](O)[C@H](O)[C@@H]1O [Ciceritol, O-α-D-galactopyranosyl-[1→6]-O-α-D-galactopyranosyl-[1→2]-4-O-methyl-D-chiroinositol]
β-endorphin secreted (20 ng/ml, Table II ciceritol first series, Control 1 ± 2): 8 ± 3 pg/mL
β-endorphin secreted (64 ng/ml, Table II ciceritol second series, Control 3 ± 3): 44 ± 7 pg/mL
β-endorphin secreted (100 ng/ml, Table II ciceritol first series, Control 1 ± 2): 8 ± 4 pg/mL
β-endorphin secreted (500 ng/ml, Table II ciceritol first series, Control 1 ± 2): 9 ± 5 pg/mL
effect on the production of β-endorphin by normal human keratinocytes (in words): stimulating effect

OC[C@H]1O[C@H](OC[C@H]2O[C@H](OC[C@H]3O[C@H](O[C@]4(CO)O[C@H](CO)[C@@H](O)[C@@H]4O)[C@H](O)[C@@H](O)[C@@H]3O)[C@H](O)[C@@H](O)[C@H]2O)[C@H](O)[C@@H](O)[C@H]1O [Stachyose, O-α-D-galactopyranosyl-[1→6]-O-α-D-galactopyranosyl-[1→6]-β-D-fructofuranosyl-α-D-glucopyranoside]
β-endorphin secreted (20 ng/ml, Table II stachyose experiment, Control 10 ± 3): 16 ± 1 pg/mL
β-endorphin secreted (100 ng/ml, Table II stachyose experiment, Control 10 ± 3): 22 ± 2 pg/mL
β-endorphin secreted (500 ng/ml, Table II stachyose experiment, Control 10 ± 3): 30 ± 13 pg/mL
effect on the production of β-endorphin by normal human keratinocytes (in words): stimulating effect
